Values quoted from earlier work in patent US6586576B2, “Preparation method of azithromycin hydrates” (Teva Pharmaceutical Industries LTD, priority 2000, dated 2003).
Like-named read-outs stand apart in the source and are kept apart here.

Assays:
[1] = crystal/hydrate form, per EP 298 650 and CN 1,093,370

## CC[C@H]1OC(=O)C(C)C(OC2CC(C)(OC)C(O)C(C)O2)C(C)C(OC2OC(C)CC(N(C)C)C2O)C(C)(O)CC(C)CN(C)C(C)C(O)C1(C)O (stereo partly drawn) [azithromycin, 9-deoxo-9a-aza-9a-methyl-9a-homoerythromycin A]
other
  stability under acidic conditions: not stable

## CC[C@H]1OC(=O)[C@H](C)[C@@H](O[C@H]2C[C@@](C)(OC)[C@@H](O)[C@H](C)O2)[C@H](C)[C@@H](O[C@@H]2O[C@H](C)C[C@H](N(C)C)[C@H]2O)[C@](C)(O)C[C@@H](C)CN(C)[C@H](C)[C@@H](O)[C@]1(C)O [azithromycin dihydrate]
[1]; dihydrate
  hygroscopic nature: less hygroscopic than the previously known azithromycin monohydrate

## CC[C@H]1OC(=O)[C@H](C)[C@@H](O[C@H]2C[C@@](C)(OC)[C@@H](O)[C@H](C)O2)[C@H](C)[C@@H](O[C@@H]2O[C@H](C)C[C@H](N(C)C)[C@H]2O)[C@](C)(O)C[C@@H](C)CN(C)[C@H](C)[C@@H](O)[C@]1(C)O [azithromycin monohydrate]
[1]; monohydrate
  hygroscopic nature: hygroscopic
